Data reported in ChEMBL document CHEMBL5518228, “DNA Interaction and Cleavage Modes of Anthraquinone-Fused Enediynes: A Study on Tiancimycins, Yangpumicins, and Their Semisynthetic Analogues” (J Med Chem, 2024).
Calls of active or inactive are those of the source. No cut-off for these calls is given here.

Tests used:
Jurkat = test: Cytotoxicity against human Jurkat cells incubated for 72 hrs by CCK-8 assay; format: functional, cell-based
A549 = test: Cytotoxicity against human A549 cells incubated for 72 hrs by CCK-8 assay; format: functional, cell-based; details: A549, 72 h
Caco-2 = test: Cytotoxicity against human Caco-2 cells incubated for 72 hrs by CCK-8 assay; format: functional, cell-based; details: Caco-2, 72 h
[1] = Cytotoxicity against human KPL-4 cells incubated for 72 hrs by CCK-8 assay; format: functional, cell-based; details: KPL4, 72 h
[2] = Cytotoxicity against human NCM460 cells incubated for 72 hrs by CCK-8 assay; format: toxicity, cell-based
[3] = Cytotoxicity against human HUVEC cells incubated for 72 hrs by CCK-8 assay; format: toxicity, cell-based
Supercoiled DNA [4] = test: Induction of supercoiled pBR322 DNA (unknown origin) cleavage assessed as relaxation of supercoiled plasmid incubated for 1 hr in presence of DTT by SYBR I Green staining based agarose gel electrophoresis analysis; format: nucleic-acid assay
Supercoiled DNA [5] = test: Induction of supercoiled pBR322 DNA (unknown origin) cleavage at 5 uM incubated for 1 hr under pH 5.5 to 9.5 condition by agarose gel electrophoresis analysis; format: nucleic-acid assay
Supercoiled DNA [6] = test: Induction of supercoiled pBR322 DNA (unknown origin) cleavage at 5 uM incubated for 1 hr in presence of catalase under pH 7.4 condition by agarose gel electrophoresis analysis; format: nucleic-acid assay
Supercoiled DNA [7] = test: Induction of supercoiled pBR322 DNA (unknown origin) cleavage at 5 uM incubated for 1 hr in presence of pyridine under pH 7.4 condition by agarose gel electrophoresis analysis; format: nucleic-acid assay
Supercoiled DNA [8] = test: Induction of supercoiled pBR322 DNA (unknown origin) cleavage at 5 uM incubated for 1 hr in presence of methanol under pH 7.4 condition by agarose gel electrophoresis analysis; format: nucleic-acid assay
Supercoiled DNA [9] = test: Induction of supercoiled pBR322 DNA (unknown origin) cleavage at 5 uM incubated for 1 hr in presence of ethanol under pH 7.4 condition by agarose gel electrophoresis analysis; format: nucleic-acid assay
Supercoiled DNA [10] = test: Induction of supercoiled pBR322 DNA (unknown origin) cleavage at 5 uM incubated for 1 hr in presence of mannitol under pH 7.4 condition by agarose gel electrophoresis analysis; format: nucleic-acid assay
DNA = test: Induction of duplex DNA (unknown origin) cleavage assessed as DNA cleaved fragments at AT-rich region at 1 mM incubated for 6 hr in presence of DTT by agarose gel electrophoresis analysis; format: nucleic-acid assay
Calf thymus DNA [11] = test: Binding affinity to calf thymus DNA assessed as change in gibbs free energy in presence of ethidium bromide by competitive binding based fluorescence spectroscopic analysis; format: nucleic-acid assay; details: Bos taurus
KPL-4 [12] = test: Antitumor activity against human KPL-4 cells xenografted with BALB/c mouse assessed as reduction in tumor mass at 0.05 mg/kg,iv administrated once per week for 2 weeks; format: functional, organism-based
KPL-4 [13] = test: Antitumor activity against human KPL-4 cells xenografted with BALB/c mouse assessed as reduction in tumor mass at 0.2 mg/kg,iv administrated once per week for 2 weeks; format: functional, organism-based
[14] = Toxicity in BALB/c mouse xenografted with human KPL-4 cells assessed as body weight loss at 0.2 mg/kg,iv administrated once per week for 2 weeks; format: organism-based; details: in vivo, 336 h
[15] = Toxicity in BALB/c mouse xenografted with human KPL-4 cells assessed as pathological damage in heart at 0.05 mg/kg,iv administrated once per week for 2 weeks by H and E staining based analysis; format: organism-based; details: in vivo, 336 h
[16] = Toxicity in BALB/c mouse xenografted with human KPL-4 cells assessed as pathological damage in heart at 0.2 mg/kg,iv administrated once per week for 2 weeks by H and E staining based analysis; format: organism-based; details: in vivo, 336 h
[17] = Toxicity in BALB/c mouse xenografted with human KPL-4 cells assessed as pathological damage in liver at 0.05 mg/kg,iv administrated once per week for 2 weeks by H and E staining based analysis; format: organism-based; details: in vivo, 336 h
[18] = Toxicity in BALB/c mouse xenografted with human KPL-4 cells assessed as pathological damage in liver at 0.2 mg/kg,iv administrated once per week for 2 weeks by H and E staining based analysis; format: organism-based; details: in vivo, 336 h
[19] = Toxicity in BALB/c mouse xenografted with human KPL-4 cells assessed as pathological damage in lung at 0.05 mg/kg,iv administrated once per week for 2 weeks by H and E staining based analysis; format: organism-based; details: in vivo, 336 h
[20] = Toxicity in BALB/c mouse xenografted with human KPL-4 cells assessed as pathological damage in lung at 0.2 mg/kg,iv administrated once per week for 2 weeks by H and E staining based analysis; format: organism-based; details: in vivo, 336 h
[21] = Toxicity in BALB/c mouse xenografted with human KPL-4 cells assessed as pathological damage in spleen at 0.05 mg/kg,iv administrated once per week for 2 weeks by H and E staining based analysis; format: organism-based; details: in vivo, 336 h
[22] = Toxicity in BALB/c mouse xenografted with human KPL-4 cells assessed as pathological damage in spleen at 0.2 mg/kg,iv administrated once per week for 2 weeks by H and E staining based analysis; format: organism-based; details: in vivo, 336 h
[23] = Toxicity in BALB/c mouse xenografted with human KPL-4 cells assessed as pathological damage in kidney at 0.05 mg/kg,iv administrated once per week for 2 weeks by H and E staining based analysis; format: organism-based; details: in vivo, 336 h
[24] = Toxicity in BALB/c mouse xenografted with human KPL-4 cells assessed as pathological damage in kidney at 0.2 mg/kg,iv administrated once per week for 2 weeks by H and E staining based analysis; format: organism-based; details: in vivo, 336 h
Supercoiled DNA [25] = test: Induction of supercoiled pBR322 DNA (unknown origin) cleavage at 50 uM incubated for 1 hr in presence of NADPH by agarose gel electrophoresis analysis; format: nucleic-acid assay
Supercoiled DNA [26] = test: Induction of supercoiled pBR322 DNA (unknown origin) cleavage at 50 uM incubated for 1 hr in presence of DTT by agarose gel electrophoresis analysis; format: nucleic-acid assay
Supercoiled DNA [27] = test: Induction of supercoiled pBR322 DNA (unknown origin) cleavage at 50 uM incubated for 1 hr in presence of GSH by agarose gel electrophoresis analysis; format: nucleic-acid assay
Supercoiled DNA [28] = test: Induction of supercoiled pBR322 DNA (unknown origin) cleavage at 50 uM incubated for 1 hr under pH 5.5 to 6.5 condition by agarose gel electrophoresis analysis; format: nucleic-acid assay
Supercoiled DNA [29] = test: Induction of supercoiled pBR322 DNA (unknown origin) cleavage at 50 uM incubated for 1 hr under pH 5.5 to 9.5 condition by agarose gel electrophoresis analysis; format: nucleic-acid assay
Supercoiled DNA [30] = test: Induction of supercoiled pBR322 DNA (unknown origin) cleavage at 50 uM incubated for 1 hr in presence of catalase under pH 7.4 condition by agarose gel electrophoresis analysis; format: nucleic-acid assay
Supercoiled DNA [31] = test: Induction of supercoiled pBR322 DNA (unknown origin) cleavage at 50 uM incubated for 1 hr in presence of DTT under pH 7.4 condition by agarose gel electrophoresis analysis; format: nucleic-acid assay
Supercoiled DNA [32] = test: Induction of supercoiled pBR322 DNA (unknown origin) cleavage at 50 uM incubated for 1 hr in presence of pyridine under pH 7.4 condition by agarose gel electrophoresis analysis; format: nucleic-acid assay
Supercoiled DNA [33] = test: Induction of supercoiled pBR322 DNA (unknown origin) cleavage at 50 uM incubated for 1 hr in presence of adriamycin by agarose gel electrophoresis analysis; format: nucleic-acid assay
Supercoiled DNA [34] = test: Induction of supercoiled pBR322 DNA (unknown origin) cleavage at 50 uM incubated for 1 hr in presence of actinomycin D by agarose gel electrophoresis analysis; format: nucleic-acid assay
Supercoiled DNA [35] = test: Induction of supercoiled pBR322 DNA (unknown origin) cleavage at 50 uM incubated for 1 hr in presence of bleomycin by agarose gel electrophoresis analysis; format: nucleic-acid assay
Supercoiled DNA [36] = test: Induction of supercoiled pBR322 DNA (unknown origin) cleavage at 50 uM incubated for 1 hr in presence of bleomycin and ferrous ion by agarose gel electrophoresis analysis; format: nucleic-acid assay
Calf thymus DNA [37] = test: Binding affinity to calf thymus DNA assessed as DNA insertion by measuring change in gibbs free energy by fluorescence spectroscopic analysis; format: nucleic-acid assay; details: Bos taurus
Calf thymus DNA [38] = test: Binding affinity to calf thymus DNA assessed as DNA insertion by measuring change in gibbs free energy in presence of triggered form of compound by fluorescence spectroscopic analysis; format: nucleic-acid assay; details: Bos taurus

COc1ccc2c(c1O)C(=O)c1c3c(cc(O)c1C2=O)[C@@]12O[C@@]1([C@](C)(O)[C@H](O)C(=O)O)[C@H](C#C/C=C\C#C[C@H]2O)N3
IC50 (Jurkat): 1 nM
IC50 (A549): 10.1 nM
IC50 (Caco-2): 158 nM
IC50 [1]: 0.24 nM
IC50 at 72 h [2]: 0.6 nM
IC50 at 72 h [3]: 6.8 nM
EC50 (Supercoiled DNA [4]): 760 nM
Activity (Supercoiled DNA [5]): Active
Activity (Supercoiled DNA [6]): Active
Activity (Supercoiled DNA [7]): Active
Activity (Supercoiled DNA [8]): Active
Activity (Supercoiled DNA [9]): Active
Activity (Supercoiled DNA [10]): Active
Activity (DNA): inactive
deltaG (Calf thymus DNA [11]): -8.48 kcal/mol

COc1ccc2c(c1OC)C(=O)c1c3c(cc(O)c1C2=O)[C@@]12O[C@@]1([C@@H](C)O)[C@H](C#C/C=C\C#C[C@H]2O)N3
IC50 (Jurkat): 0.1 nM
IC50 (A549): 1.3 nM
IC50 (Caco-2): 37.9 nM
IC50 [1]: 0.1 nM
IC50 at 72 h [2]: 6 nM
IC50 at 72 h [3]: 6.8 nM
EC50 (Supercoiled DNA [4]): 17.3 nM
Activity (KPL-4 [12]): Active
Activity (KPL-4 [13]): Active
Activity [14]: Non-Toxic
Activity [15]: Non-Toxic
Activity [16]: Non-Toxic
Activity [17]: Non-Toxic
Activity [18]: Non-Toxic
Activity [19]: Non-Toxic
Activity [20]: Non-Toxic
Activity [21]: Non-Toxic
Activity [22]: Non-Toxic
Activity [23]: Non-Toxic
Activity [24]: Non-Toxic
Activity (Supercoiled DNA [25]): inactive
Activity (Supercoiled DNA [26]): Active
Activity (Supercoiled DNA [27]): inactive
Activity (Supercoiled DNA [28]): inactive
Activity (Supercoiled DNA [29]): Active
Activity (Supercoiled DNA [30]): inactive
Activity (Supercoiled DNA [31]): inactive
Activity (Supercoiled DNA [32]): inactive
Activity (Supercoiled DNA [33]): inactive
Activity (Supercoiled DNA [34]): inactive
Activity (Supercoiled DNA [35]): Active
Activity (Supercoiled DNA [36]): Active
Activity (DNA): inactive
deltaG (Calf thymus DNA [11]): -7.98 kcal/mol
deltaG (Calf thymus DNA [37]): -23.8 kcal/mol
deltaG (Calf thymus DNA [38]): -18.1 kcal/mol
